Where a SMILES comes first, the peptide text is derived from it. Bridges are numbered along the chain shown (N, C = ends). [ ]: non-standard residue; d: D form. The star is where a group is joined. ξ: configuration not given here. Phe(4-COOH) = N[C@@H](Cc1ccc(C(=O)O)cc1)C(=O)O; Bip = N[C@@H](Cc1ccc(-c2ccccc2)cc1)C(=O)O; Phe(3-Me) = Cc1cccc(C[C@H](N)C(=O)O)c1; 4Pal = N[C@@H](Cc1ccncc1)C(=O)O; Cha = N[C@@H](CC1CCCCC1)C(=O)O; Ile(3ξ) = CCC(C)[C@H](N)C(=O)O; Tle = CC(C)(C)[C@H](N)C(=O)O; Carboxymethyl = O=C(O)C*; Orn = NCCC[C@H](N)C(=O)O; Dab = NCC[C@H](N)C(=O)O; Aib = CC(C)(N)C(=O)O
These compounds were tested against T1, human PD-1 / PD-L1-Ig binding on Jurkat cell line over-expressing human PD-1 (Jurkat-PD-1) (Homo sapiens, UniProt Q15116) (assay: Jurkat-PD-1 Cell Binding High-Content Screening Assay (CBA)). Details: Jurkat-PD-1 cells, PE-labeled PD-L1-Ig 20 nM final; read-out: Jurkat HPD1_PDL1 IC50.
T1 construct: expressed in transfected cells; host or cells: Jurkat
T1 sequence (Q15116 25-288): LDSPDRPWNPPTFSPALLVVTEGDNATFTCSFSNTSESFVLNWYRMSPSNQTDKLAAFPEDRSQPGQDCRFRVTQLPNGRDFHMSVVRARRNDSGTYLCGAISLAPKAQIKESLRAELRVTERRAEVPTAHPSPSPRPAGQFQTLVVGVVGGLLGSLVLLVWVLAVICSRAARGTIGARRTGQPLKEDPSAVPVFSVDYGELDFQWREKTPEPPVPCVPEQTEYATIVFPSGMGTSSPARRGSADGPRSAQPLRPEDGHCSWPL
Format: cell-based
Procedure, shortened: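 Jurkat cells over-expressing human PD-1, in DMEM/10% FCS, pre-incubated with compound 2 h at 37° C. PE-labeled human PD-L1-Ig (20 nM final) added for 1 h; cells fixed in paraformaldehyde with Hoechst 33342 nuclear stain, washed, and bound fluorescence quantified by high-content imaging.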
`Cc1cccc(C[C@@H]2NC(=O)[C@H](CC(=O)O)NC(=O)[C@H](Cc3ccc(C(=O)O)cc3)NC(=O)[C@H](Cc3ccncc3)NC(=O)CSC[C@@H](C(=O)N[C@@H](CCN)C(N)=O)NC(=O)[C@H](CO)NC(=O)[C@H](C(C)(C)C)NC(=O)[C@H](CC3CCCCC3)NC(=O)[C@H](CCN)NC(=O)[C@@H](CC(C)C)NC(=O)[C@H](CCCN)NC(=O)[C@H](Cc3ccc(OCC(=O)O)cc3)NC(=O)[C@H](Cc3ccc(-c4ccccc4)cc3)NC(=O)[C@H](Cc3ccc(OCC(=O)O)cc3)NC2=O)c1` [Compound 2294] ({CH2CO}-[4Pal][Phe(4-COOH)]D[Phe(3-Me)]Y(Carboxymethyl)[Bip]Y(Carboxymethyl)[Orn][dL][Dab][Cha][Tle]SC[Dab]-NH2; thioether N-14) was tested, and the IC50 was 9.4 nM.
With `Cc1cccc(C[C@@H]2NC(=O)[C@H](CC(=O)O)NC(=O)[C@H](Cc3ccc(C(=O)O)cc3)NC(=O)[C@H](Cc3ccncc3)NC(=O)CSC[C@@H](C(=O)N[C@@H](CO)C(N)=O)NC(=O)[C@H](CO)NC(=O)[C@H](C(C)C)NC(=O)[C@H](CC3CCCCC3)NC(=O)[C@H](CCN)NC(=O)[C@@H](CC(C)C)NC(=O)[C@H](CCCN)NC(=O)[C@H](Cc3ccc(OCC(=O)O)cc3)NC(=O)[C@H](Cc3ccc(-c4ccccc4)cc3)NC(=O)[C@H](Cc3ccc(OCC(=O)O)cc3)NC2=O)c1` [Compound 2295] ({CH2CO}-[4Pal][Phe(4-COOH)]D[Phe(3-Me)]Y(Carboxymethyl)[Bip]Y(Carboxymethyl)[Orn][dL][Dab][Cha]VSCS-NH2; thioether N-14) the IC50 was 11.7 nM.
`Cc1cccc(C[C@@H]2NC(=O)[C@H](CC(=O)O)NC(=O)[C@H](Cc3ccc(C(=O)O)cc3)NC(=O)[C@H](Cc3ccncc3)NC(=O)CSC[C@@H](C(=O)NC(C)(C)C(N)=O)NC(=O)[C@H](CO)NC(=O)[C@H](C(C)C)NC(=O)[C@H](CC3CCCCC3)NC(=O)[C@H](CCN)NC(=O)[C@@H](CC(C)C)NC(=O)[C@H](CCCN)NC(=O)[C@H](Cc3ccc(OCC(=O)O)cc3)NC(=O)[C@H](Cc3ccc(-c4ccccc4)cc3)NC(=O)[C@H](Cc3ccc(OCC(=O)O)cc3)NC2=O)c1` [Compound 2296] ({CH2CO}-[4Pal][Phe(4-COOH)]D[Phe(3-Me)]Y(Carboxymethyl)[Bip]Y(Carboxymethyl)[Orn][dL][Dab][Cha]VSC[Aib]-NH2; thioether N-14) gave an IC50 of 8.8 nM.
Compound `CCC(C)[C@@H]1NC(=O)[C@H](Cc2ccc(-c3ccccc3)cc2)NC(=O)[C@H](C(C)C)NC(=O)[C@H](Cc2cccc(C)c2)NC(=O)[C@H](CC(=O)O)NC(=O)[C@H](Cc2ccc(C(=O)O)cc2)NC(=O)[C@H](Cc2ccncc2)NC(=O)CSC[C@@H](C(=O)N[C@@H](CC(N)=O)C(N)=O)NC(=O)[C@H]([C@@H](C)O)NC(=O)[C@H](C(C)C)NC(=O)[C@H](CC2CCCCC2)NC(=O)[C@H](CCN)NC(=O)[C@@H](CC(C)C)NC(=O)[C@H](CCCN)NC1=O` (stereo partly shown) [Compound 2297] has an IC50 of 10.4 nM.
Work on `CCC(C)[C@@H]1NC(=O)[C@H](Cc2ccc(-c3ccccc3)cc2)NC(=O)[C@H](C(C)C)NC(=O)[C@H](Cc2cccc(C)c2)NC(=O)[C@H](CC(=O)O)NC(=O)[C@H](Cc2ccc(C(=O)O)cc2)NC(=O)[C@H](Cc2ccncc2)NC(=O)CSC[C@@H](C(=O)N[C@@H](CC(N)=O)C(N)=O)NC(=O)[C@H](CO)NC(=O)[C@H](C(C)C)NC(=O)[C@H](CC2CCCCC2)NC(=O)[C@H](CCN)NC(=O)[C@@H](CC(C)C)NC(=O)[C@H](CCCN)NC1=O` (stereo partly drawn) [Compound 2298] ({CH2CO}-[4Pal][Phe(4-COOH)]D[Phe(3-Me)]V[Bip][Ile(3ξ)][Orn][dL][Dab][Cha]VSCN-NH2; thioether N-14) yielded an IC50 of 15.5 nM.
Compound `CCC(C)[C@@H]1NC(=O)[C@H](Cc2ccc(-c3ccccc3)cc2)NC(=O)[C@H](C(C)C)NC(=O)[C@H](Cc2cccc(C)c2)NC(=O)[C@H](CC(=O)O)NC(=O)[C@H](Cc2ccc(C(=O)O)cc2)NC(=O)[C@H](Cc2ccncc2)NC(=O)CSC[C@@H](C(=O)N[C@@H](CC(N)=O)C(N)=O)NC(=O)[C@H]([C@@H](C)O)NC(=O)[C@H](C(C)C)NC(=O)[C@H](CC2CCCCC2)NC(=O)[C@H](CCN)NC(=O)[C@@H](CC(C)C)NC(=O)[C@H](CCCN)NC1=O` (stereo partly shown) [Compound 2299] has an IC50 of 14.4 nM.
For `CCC(C)[C@@H]1NC(=O)[C@H](Cc2ccc(-c3ccccc3)cc2)NC(=O)[C@H](C(C)C)NC(=O)[C@H](Cc2cccc(C)c2)NC(=O)[C@H](CC(=O)O)NC(=O)[C@H](Cc2ccc(C(=O)O)cc2)NC(=O)[C@H](Cc2ccncc2)NC(=O)CSC[C@@H](C(=O)N[C@H](CC(N)=O)C(N)=O)NC(=O)[C@H](CO)NC(=O)[C@H](C(C)C)NC(=O)[C@H](CC2CCCCC2)NC(=O)[C@H](CCN)NC(=O)[C@@H](CC(C)C)NC(=O)[C@H](CCCN)NC1=O` (stereo partly drawn) [Compound 2300] ({CH2CO}-[4Pal][Phe(4-COOH)]D[Phe(3-Me)]V[Bip][Ile(3ξ)][Orn][dL][Dab][Cha]VSC[dN]-NH2; thioether N-14), the IC50 was 13.4 nM.
Compound `CCC(C)[C@@H]1NC(=O)[C@H](Cc2ccc(-c3ccccc3)cc2)NC(=O)[C@H](C(C)C)NC(=O)[C@H](Cc2cccc(C)c2)NC(=O)[C@H](CC(=O)O)NC(=O)[C@H](Cc2ccc(C(=O)O)cc2)NC(=O)[C@H](Cc2ccncc2)NC(=O)CSC[C@@H](C(=O)N[C@@H](CCN)C(N)=O)NC(=O)[C@H]([C@@H](C)O)NC(=O)[C@H](C(C)C)NC(=O)[C@H](CC2CCCCC2)NC(=O)[C@H](CCN)NC(=O)[C@@H](CC(C)C)NC(=O)[C@H](CCCN)NC1=O` (stereo partly shown) [Compound 2301] has an IC50 of 14.8 nM.
Compound `Cc1cccc(C[C@@H]2NC(=O)[C@H](CC(=O)O)NC(=O)[C@H](Cc3ccc(C(=O)O)cc3)NC(=O)[C@H](Cc3ccncc3)NC(=O)CSC[C@@H](C(=O)N[C@@H](CC(N)=O)C(N)=O)NC(=O)[C@H]([C@@H](C)O)NC(=O)[C@H](C(C)C)NC(=O)[C@H](CC3CCCCC3)NC(=O)[C@H](CCN)NC(=O)[C@@H](CC(C)C)NC(=O)[C@H](CCCN)NC(=O)[C@H](Cc3ccc(OCC(=O)O)cc3)NC(=O)[C@H](Cc3ccc(-c4ccccc4)cc3)NC(=O)[C@H](Cc3ccc(OCC(=O)O)cc3)NC2=O)c1` [Compound 2302] ({CH2CO}-[4Pal][Phe(4-COOH)]D[Phe(3-Me)]Y(Carboxymethyl)[Bip]Y(Carboxymethyl)[Orn][dL][Dab][Cha]VTCN-NH2; thioether N-14) has an IC50 of 4 nM.
Compound `Cc1cccc(C[C@@H]2NC(=O)[C@H](CC(=O)O)NC(=O)[C@H](Cc3ccc(C(=O)O)cc3)NC(=O)[C@H](Cc3ccncc3)NC(=O)CSC[C@@H](C(=O)N[C@@H](CC(N)=O)C(N)=O)NC(=O)[C@H](CO)NC(=O)[C@H](C(C)C)NC(=O)[C@H](CC3CCCCC3)NC(=O)[C@H](CCN)NC(=O)[C@@H](CC(C)C)NC(=O)[C@H](CCCN)NC(=O)[C@H](Cc3ccc(OCC(=O)O)cc3)NC(=O)[C@H](Cc3ccc(-c4ccccc4)cc3)NC(=O)[C@H](Cc3ccc(OCC(=O)O)cc3)NC2=O)c1` [Compound 2303] ({CH2CO}-[4Pal][Phe(4-COOH)]D[Phe(3-Me)]Y(Carboxymethyl)[Bip]Y(Carboxymethyl)[Orn][dL][Dab][Cha]VSCN-NH2; thioether N-14) has an IC50 of 5.3 nM.
